According to US8487102B2, “Pyrrazolopyridine compounds as dual NK1/NK3 receptor antagonists” (Hoffmann-La Roche Inc., priority 2010, dated 2013):

What was measured:
human NK1 receptor = molecular target: T1, human NK1 receptor (Homo sapiens, UniProt P25103); test: NK1 receptor binding assay, [3H]substance P displacement; details: human NK1 receptors in CHO cells, [3H]substance P 0.6 nM
T1 construct: expressed in transfected cells; host or cells: CHO cells (Semliki virus expression system), membrane suspension
T1 sequence (P25103 whole entry): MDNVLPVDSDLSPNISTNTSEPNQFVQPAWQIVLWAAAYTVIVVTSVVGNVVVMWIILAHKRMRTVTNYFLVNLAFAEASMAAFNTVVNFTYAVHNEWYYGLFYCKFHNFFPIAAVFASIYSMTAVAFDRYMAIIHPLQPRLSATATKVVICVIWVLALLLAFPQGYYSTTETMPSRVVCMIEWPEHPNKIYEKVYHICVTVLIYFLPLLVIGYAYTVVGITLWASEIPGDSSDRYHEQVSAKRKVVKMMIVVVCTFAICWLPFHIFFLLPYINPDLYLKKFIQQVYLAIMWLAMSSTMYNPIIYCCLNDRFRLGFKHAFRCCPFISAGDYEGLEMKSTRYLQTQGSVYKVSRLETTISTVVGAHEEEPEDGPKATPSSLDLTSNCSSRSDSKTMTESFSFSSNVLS

[1] = molecular target: T2, Recombinant human NK3 (hNK3) receptor (Homo sapiens, UniProt P29371); test: NK3 receptor binding assay, [3H]SR142801 displacement; details: hNK3 receptor membranes, [3H]SR142801 0.3 nM
T2 construct: expressed in transfected cells; membrane preparations of the recombinant receptor
T2 sequence (P29371 1-465): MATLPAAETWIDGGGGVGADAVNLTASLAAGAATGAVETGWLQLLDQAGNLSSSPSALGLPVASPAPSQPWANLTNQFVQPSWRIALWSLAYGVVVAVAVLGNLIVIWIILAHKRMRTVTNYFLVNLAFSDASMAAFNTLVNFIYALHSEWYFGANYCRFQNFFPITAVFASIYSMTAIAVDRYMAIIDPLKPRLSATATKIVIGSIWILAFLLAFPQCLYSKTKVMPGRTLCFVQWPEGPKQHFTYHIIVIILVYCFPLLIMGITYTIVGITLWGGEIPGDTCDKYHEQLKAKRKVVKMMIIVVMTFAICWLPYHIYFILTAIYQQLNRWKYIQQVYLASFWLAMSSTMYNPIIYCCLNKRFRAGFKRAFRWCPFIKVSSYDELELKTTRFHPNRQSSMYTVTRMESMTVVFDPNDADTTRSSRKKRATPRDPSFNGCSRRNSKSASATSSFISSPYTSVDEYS
Protocol: Recombinant human NK3 (hNK3) receptor affinity was determined in a 96 well plate assay, using [^3H]SR142801 (final concentration 0.3 nM) to radiolabel the hNK3 receptor in the presence of 10 concentrations of competing compound or buffer. Non specific binding was determined using 10 μM SB222200. Assay buffer consisted of Tris-HCl (50 mM, pH 7.4), BSA (0.1%), MnCl2 (4 mM) and phosphoramidon (1 μM). Membrane preparations of hNK3 receptors (approximately 2.5 μg/well in a 96 well plate) were used to initiate the incubation for 90 min at room temperature. This assay was terminated by rapid filtration under vacuum through GF/C filters, presoaked for 90 min with PEI (0.3%), with 3×0.5 ml washes of ice-cold Tris buffer (50 mM, pH 7.4) containing 0.1% BSA. The radioactivity retained on the filters was measured by scintillation counting. All assays were performed in duplicate in at least two separate experiments.

[2] = phase II trial, cited from earlier work

| Structure (SMILES) | Ki (human NK1 receptor) [nM] | Ki [1] [nM] | activity on positive symptoms of schizophrenia ([2]; altered behaviour, delusion, hallucinations, extreme emotions, excited motor activity, incoherent speech) | activity in the treatment of negative symptoms of schizophrenia ([2]; depression, anhedonia, social isolation or memory and attention deficits) |
| --- | --- | --- | --- | --- |
| CCn1ncc2c(-c3cscc3C)c(N(C)C(=O)C(C)(C)c3cc(C(F)(F)F)cc(C(F)(F)F)c3)cnc21 [Example 21, 2-(3,5-Bis-trifluoromethyl-phenyl)-N-[1-ethyl-4-(4-methyl-thiophen-3-yl)-1H-pyrazolo[3,4-b]pyridin-5-yl]-N-methyl-isobutyramide] | 92 | 1.2 | – | – |
| CCn1ncc2c(-c3ccc(C#N)cc3)c(N(C)C(=O)C(C)(C)c3cc(C(F)(F)F)cc(C(F)(F)F)c3)cnc21 [Example 23, 2-(3,5-Bis-trifluoromethyl-phenyl)-N-[4-(4-cyano-phenyl)-1-ethyl-1H-pyrazolo[3,4-b]pyridin-5-yl]-N-methyl-isobutyramide] | 4.9 | 979 | – | – |
| CCn1ncc2c(-c3ccsc3Cl)c(N(C)C(=O)C(C)(C)c3cc(C(F)(F)F)cc(C(F)(F)F)c3)cnc21 [Example 24, 2-(3,5-Bis-trifluoromethyl-phenyl)-N-[4-(2-chloro-thiophen-3-yl)-1-ethyl-1H-pyrazolo[3,4-b]pyridin-5-yl]-N-methyl-isobutyramide] | 36 | 0.7 | – | – |
| CCn1ncc2c(-c3ccc(F)cc3C)c(N(C)C(=O)C(C)(C)c3cc(F)cc(C(F)(F)F)c3)cnc21 [Example 26, 2-(3-fluoro-5-trifloromethyl-phenyl)-N-[1-ethyl-4-(4-fluoro-2-methyl-phenyl)-1H-pyrazolo[3,4-b]pyridin-5-yl]-N-methyl-isobutyramide] | 4.2 | 94.2 | – | – |
| CCn1ncc2c(-c3ccc(F)cc3C)c(N(C)C(=O)C(C)(C)c3cc(Cl)cc(Cl)c3)cnc21 [Example 27, 2-(3,5-Dichloro-phenyl)-N-[1-ethyl-4-(4-fluoro-2-methyl-phenyl)-1H-pyrazolo[3,4-b]pyridin-5-yl]-N-methyl-isobutyramide] | 2.6 | 35.1 | – | – |
| CCn1ncc2c(-c3ccc(F)cc3C)c(N(C)C(=O)C(C)(C)c3cccc(Cl)c3)cnc21 [Example 29, 2-(3-Chloro-phenyl)-N-[1-ethyl-4-(4-fluoro-2-methyl-phenyl)-1H-pyrazolo[3,4-b]pyridin-5-yl]-N-methyl-isobutyramide] | 34.5 | 308 | – | – |
| CCn1ncc2c(-c3ccc(F)cc3C)c(N(C)C(=O)C(C)(C)c3cccc(C(F)(F)F)c3)cnc21 [Example 30, N-[1-Ethyl-4-(4-fluoro-2-methyl-phenyl)-1H-pyrazolo[3,4-b]pyridin-5-yl]-N-methyl-2-(3-trifluoromethyl-phenyl)-isobutyramide] | 12.4 | 875 | – | – |
| Cc1cc(F)ccc1-c1c(N(C)C(=O)C(C)(C)c2cc(C(F)(F)F)cc(C(F)(F)F)c2)cnc2c1cnn2S(=O)(=O)N(C)C [Example 37, 2-(3,5-Bis-trifluoromethyl-phenyl)-N-[1-dimethylsulfamoyl-4-(4-fluoro-2-methyl-phenyl)-1H-pyrazolo[3,4-b]pyridin-5-yl]-N-methyl-isobutyramide] | 7.5 | 78.5 | – | – |
| CC(=O)N(C)C1(c2ccccc2)CCN(CCC[C@]2(c3ccc(Cl)c(Cl)c3)CCCN(C(=O)c3ccccc3)C2)CC1 [SR 142,801, Osanetant] | – | – | active | inactive |

Further lines, with some results ahead:

| Ki (human NK1 receptor) [nM] | Ki [1] [nM] | Structure (SMILES) | activity on positive symptoms of schizophrenia ([2]; altered behaviour, delusion, hallucinations, extreme emotions, excited motor activity, incoherent speech) | activity in the treatment of negative symptoms of schizophrenia ([2]; depression, anhedonia, social isolation or memory and attention deficits) |
| --- | --- | --- | --- | --- |
| 2.5 | 4.8 | CCn1ncc2c(-c3cc(CO)ccc3Cl)c(N(C)C(=O)C(C)(C)c3cc(C(F)(F)F)cc(C(F)(F)F)c3)cnc21 [Example 22, 2-(3,5-Bis-trifluoromethyl-phenyl)-N-[4-(2-chloro-5-hydroxymethyl-phenyl)-1-ethyl-1H-pyrazolo[3,4-b]pyridin-5-yl]-N-methyl-isobutyramide] | – | – |
| 1.6 | 27.3 | Cc1cc(F)ccc1-c1c(N(C)C(=O)C(C)(C)c2cc(C(F)(F)F)cc(C(F)(F)F)c2)cnc2[nH]ncc12 [Example 28, 2-(3,5-Bis-trifluoromethyl-phenyl)-N-[4-(4-fluoro-2-methyl-phenyl)-1H-pyrazolo[3,4-b]pyridin-5-yl]-N-methyl-isobutyramide] | – | – |
| 1.2 | 12.9 | CC(=O)n1ncc2c(-c3ccc(F)cc3C)c(N(C)C(=O)C(C)(C)c3cc(C(F)(F)F)cc(C(F)(F)F)c3)cnc21 [Example 31, N-[1-Acetyl-4-(4-fluoro-2-methyl-phenyl)-1H-pyrazolo[3,4-b]pyridin-5-yl]-2-(3,5-bis-trifluoromethyl-phenyl)-N-methyl-isobutyramide] | – | – |
| 1.9 | 28.4 | COCC(=O)n1ncc2c(-c3ccc(F)cc3C)c(N(C)C(=O)C(C)(C)c3cc(C(F)(F)F)cc(C(F)(F)F)c3)cnc21 [Example 32, 2-(3,5-Bis-trifluoromethyl-phenyl)-N-[4-(4-fluoro-2-methyl-phenyl)-1-(2-methoxy-acetyl)-1H-pyrazolo[3,4-b]pyridin-5-yl]-N-methyl-isobutyramide] | – | – |
| 1.6 | 9.9 | Cc1cc(F)ccc1-c1c(N(C)C(=O)C(C)(C)c2cc(C(F)(F)F)cc(C(F)(F)F)c2)cnc2c1cnn2C(=O)C1CC1 [Example 33, 2-(3,5-Bis-trifluoromethyl-phenyl)-N-[1-cyclopropanecarbonyl-4-(4-fluoro-2-methyl-phenyl)-1H-pyrazolo[3,4-b]pyridin-5-yl]-N-methyl-isobutyramide] | – | – |
| 0.6 | 15.1 | Cc1cc(F)ccc1-c1c(N(C)C(=O)C(C)(C)c2cc(C(F)(F)F)cc(C(F)(F)F)c2)cnc2c1cnn2S(C)(=O)=O [Example 36, 2-(3,5-Bis-trifluoromethyl-phenyl)-N-[4-(4-fluoro-2-methyl-phenyl)-1-methanesulfonyl-1H-pyrazolo[3,4-b]pyridin-5-yl]-N-methyl-isobutyramide] | – | – |
| 1.1 | 8 | Cc1cc(F)ccc1-c1c(N(C)C(=O)C(C)(C)c2cc(C(F)(F)F)cc(C(F)(F)F)c2)cnc2c1cnn2CS(C)(=O)=O [Example 38, 2-(3,5-Bis-trifluoromethyl-phenyl)-N-[4-(4-fluoro-2-methyl-phenyl)-1-methanesulfonylmethyl-1H-pyrazolo[3,4-b]pyridin-5-yl]-N-methyl-isobutyramide] | – | – |
